Results reported in PubChem BioAssay AID1259407 (Chemical Carcinogenesis Research Information System (CCRIS), 2018).
Calls of active or inactive are those of the source. The rule behind the calls is not given here.

Tested on: CCRIS mutagenicity, Ames/micronucleus/aberration tests
Experiment: CCRIS mutagenicity studies

Measured: mutagenic call

[CH3][Hg+]
inactive: Test System: AMES SALMONELLA TYPHIMURIUM, Strain/Indicator: TA97, Metabolic Activation: HAMSTER, LIVER, S-9, AROCLOR 1254 (10%), Method: PREINCUBATION inactive; negative | Test System: AMES SALMONELLA TYPHIMURIUM, Strain/Indicator: TA97, Metabolic Activation: HAMSTER, LIVER, S-9, AROCLOR 1254 (30%), Method: PREINCUBATION inactive; negative | Test System: AMES SALMONELLA TYPHIMURIUM, Strain/Indicator: TA97, Metabolic Activation: NONE, Method: PREINCUBATION inactive; negative | Test System: AMES SALMONELLA TYPHIMURIUM, Strain/Indicator: TA97, Metabolic Activation: RAT, LIVER, S-9, AROCLOR 1254 (10%), Method: PREINCUBATION inactive; negative | Test System: AMES SALMONELLA TYPHIMURIUM, Strain/Indicator: TA97, Metabolic Activation: RAT, LIVER, S-9, AROCLOR 1254 (30%), Method: PREINCUBATION inactive; negative | Test System: AMES SALMONELLA TYPHIMURIUM, Strain/Indicator: TA98, Metabolic Activation: HAMSTER, LIVER, S-9, AROCLOR 1254 (10%), Method: PREINCUBATION inactive; negative | Test System: AMES SALMONELLA TYPHIMURIUM, Strain/Indicator: TA98, Metabolic Activation: HAMSTER, LIVER, S-9, AROCLOR 1254 (30%), Method: PREINCUBATION inactive; negative | Test System: AMES SALMONELLA TYPHIMURIUM, Strain/Indicator: TA98, Metabolic Activation: NONE, Method: PREINCUBATION inactive; negative | Test System: AMES SALMONELLA TYPHIMURIUM, Strain/Indicator: TA98, Metabolic Activation: RAT, LIVER, S-9, AROCLOR 1254 (10%), Method: PREINCUBATION inactive; negative | Test System: AMES SALMONELLA TYPHIMURIUM, Strain/Indicator: TA98, Metabolic Activation: RAT, LIVER, S-9, AROCLOR 1254 (30%), Method: PREINCUBATION inactive; negative | Test System: AMES SALMONELLA TYPHIMURIUM, Strain/Indicator: TA100, Metabolic Activation: HAMSTER, LIVER, S-9, AROCLOR 1254 (10%), Method: PREINCUBATION inactive; negative | Test System: AMES SALMONELLA TYPHIMURIUM, Strain/Indicator: TA100, Metabolic Activation: HAMSTER, LIVER, S-9, AROCLOR 1254 (30%), Method: PREINCUBATION inactive; negative | Test System: AMES SALMONELLA TYPHIMURIUM, Strain/Indicator: TA100, Metabolic Activation: NONE, Method: PREINCUBATION inactive; negative | Test System: AMES SALMONELLA TYPHIMURIUM, Strain/Indicator: TA100, Metabolic Activation: RAT, LIVER, S-9, AROCLOR 1254 (10%), Method: PREINCUBATION inactive; negative | Test System: AMES SALMONELLA TYPHIMURIUM, Strain/Indicator: TA100, Metabolic Activation: RAT, LIVER, S-9, AROCLOR 1254 (30%), Method: PREINCUBATION inactive; negative | Test System: AMES SALMONELLA TYPHIMURIUM, Strain/Indicator: TA1535, Metabolic Activation: HAMSTER, LIVER, S-9, AROCLOR 1254 (10%), Method: PREINCUBATION inactive; negative | Test System: AMES SALMONELLA TYPHIMURIUM, Strain/Indicator: TA1535, Metabolic Activation: HAMSTER, LIVER, S-9, AROCLOR 1254 (30%), Method: PREINCUBATION inactive; negative | Test System: AMES SALMONELLA TYPHIMURIUM, Strain/Indicator: TA1535, Metabolic Activation: NONE, Method: PREINCUBATION inactive; negative | Test System: AMES SALMONELLA TYPHIMURIUM, Strain/Indicator: TA1535, Metabolic Activation: RAT, LIVER, S-9, AROCLOR 1254 (10%), Method: PREINCUBATION inactive; negative | Test System: AMES SALMONELLA TYPHIMURIUM, Strain/Indicator: TA1535, Metabolic Activation: RAT, LIVER, S-9, AROCLOR 1254 (30%), Method: PREINCUBATION inactive; negative | Test System: AMES SALMONELLA TYPHIMURIUM, Strain/Indicator: TA1537, Metabolic Activation: HAMSTER, LIVER, S-9, AROCLOR 1254 (30%), Method: PREINCUBATION inactive; negative | Test System: AMES SALMONELLA TYPHIMURIUM, Strain/Indicator: TA1537, Metabolic Activation: NONE, Method: PREINCUBATION inactive; negative | Test System: AMES SALMONELLA TYPHIMURIUM, Strain/Indicator: TA1537, Metabolic Activation: RAT, LIVER, S-9, AROCLOR 1254 (30%), Method: PREINCUBATION inactive; negative

CC(=NC#N)N(C)Cc1ccc(Cl)nc1
inactive: End Point: In vivo micronucleus, Test System: Bone marrow polychromatic erythrocytes, Species: Mouse, Strain/Sex: CD-1/Female, Route: Gavage inactive; negative | End Point: In vivo micronucleus, Test System: Bone marrow polychromatic erythrocytes, Species: Mouse, Strain/Sex: CD-1/Male, Route: Gavage inactive; negative | Test System: Ames Salmonella typhimurium, Strain/Indicator: TA98, Metabolic Activation: None, Method: Preincubation inactive; negative | Test System: Ames Salmonella typhimurium, Strain/Indicator: TA98, Metabolic Activation: Rodent, Liver, S-9, Method: Preincubation inactive; negative | Test System: Ames Salmonella typhimurium, Strain/Indicator: TA100, Metabolic Activation: None, Method: Preincubation inactive; negative | Test System: Ames Salmonella typhimurium, Strain/Indicator: TA100, Metabolic Activation: Rodent, Liver, S-9, Method: Preincubation inactive; negative | Test System: Ames Salmonella typhimurium, Strain/Indicator: TA1535, Metabolic Activation: None, Method: Preincubation inactive; negative | Test System: Ames Salmonella typhimurium, Strain/Indicator: TA1535, Metabolic Activation: Rodent, Liver, S-9, Method: Preincubation inactive; negative | Test System: Ames Salmonella typhimurium, Strain/Indicator: TA1537, Metabolic Activation: None, Method: Preincubation inactive; negative | Test System: Ames Salmonella typhimurium, Strain/Indicator: TA1537, Metabolic Activation: Rodent, Liver, S-9, Method: Preincubation inactive; negative | Test System: E. coli, Strain/Indicator: WP2 uvrA, Metabolic Activation: None, Method: Preincubation inactive; negative | Test System: E. coli, Strain/Indicator: WP2 uvrA, Metabolic Activation: Rodent, Liver, S-9, Method: Preincubation inactive; negative | Test System: UDS F344 male rat hepatocytes, Strain/Indicator: THY INCORP, Method: Autoradiography inactive; negative
active: End Point: In vitro chromosomal aberrations, Test System: Human peripheral lymphocytes, Metabolic Activation: None active; positive (structural changes), 20% purity (commercial product mosetam 20 sp). | End Point: In vitro micronucleus, Test System: Human peripheral lymphocytes, Metabolic Activation: None active; positive, 20% purity (commercial product mosetam 20 sp).
